Patent US7875614B2, “Phthalazinones” (Merck Patent GmbH, priority 2005, dated 2011)

System: cells
Test: cell cycle effect (G2/M)
Type: cell-based
Settings: cell line not stated; "Experiments show that"

SMILES: N=C(N)c1ccc(OCCCCCOc2ccc(C(=N)N)cc2)cc1 [pentamidine]
- effect on cell cycle: maintain cells in the G2/M cell cycle
